# Results as given in patent US20210380548A1, “Fused [1,2,4]Thiadiazine Derivatives Which Act as KAT Inhibitors of the MYST Family” (CTxT Pty Limited, priority 2017, published 2021).
# Legend:
# [1] = biological target: T1, TIP60-KAT5 (Homo sapiens, UniProt Q92993); test: Acetyltransferase biochemical assay (AlphaScreen), KAT5; settings: Table 1 (TIP60-KAT5); 0.4 μM Acetyl coenzyme A, histone H4, 10 nM enzyme
# T1 construct: encoding amino acid residues 2 to 461 (Uniprot Q92993-2) of human KAT5 isoform; made in house; host or cells: E. coli BL21 DE3
# T1 sequence (Q92993 2-461 isoform Q92993-2): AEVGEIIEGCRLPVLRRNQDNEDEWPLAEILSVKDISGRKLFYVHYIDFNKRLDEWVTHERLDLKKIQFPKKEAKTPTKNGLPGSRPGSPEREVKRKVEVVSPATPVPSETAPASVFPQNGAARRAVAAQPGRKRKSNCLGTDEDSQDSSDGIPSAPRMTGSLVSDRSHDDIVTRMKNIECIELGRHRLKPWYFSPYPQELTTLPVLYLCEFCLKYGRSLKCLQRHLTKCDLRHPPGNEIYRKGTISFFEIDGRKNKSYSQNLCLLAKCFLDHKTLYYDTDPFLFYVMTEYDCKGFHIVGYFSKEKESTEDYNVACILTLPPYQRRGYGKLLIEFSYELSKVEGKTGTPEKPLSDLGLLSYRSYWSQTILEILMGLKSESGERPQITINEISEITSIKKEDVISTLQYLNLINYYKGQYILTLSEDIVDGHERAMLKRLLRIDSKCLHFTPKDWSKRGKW
# [2] = biological target: T2, HBO-KAT7 (Homo sapiens, UniProt O95251); test: Acetyltransferase biochemical assay (AlphaScreen), KAT7; settings: Table 3 (HBO-KAT7); 0.4 μM Acetyl coenzyme A, histone H3.1, 40 nM enzyme
# T2 construct: encoding amino acid residues 325 to 611 (Uniprot 095251-1) of human KAT7; made in house; host or cells: E. coli BL21 DE3 RIL
# T2 sequence (O95251 with tags, fused parts or gaps): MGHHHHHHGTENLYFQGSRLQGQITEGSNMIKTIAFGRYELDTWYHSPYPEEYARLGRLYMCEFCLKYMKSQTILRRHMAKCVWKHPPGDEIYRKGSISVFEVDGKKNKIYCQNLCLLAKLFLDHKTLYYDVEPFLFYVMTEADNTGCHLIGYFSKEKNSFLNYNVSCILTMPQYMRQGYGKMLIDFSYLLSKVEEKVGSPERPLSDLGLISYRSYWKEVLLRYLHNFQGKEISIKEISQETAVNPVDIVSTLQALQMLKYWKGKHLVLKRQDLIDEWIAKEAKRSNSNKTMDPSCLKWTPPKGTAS
# [3] = biological target: T3, MOZ-KAT6A (Homo sapiens, UniProt Q92794, A567V); test: Acetyltransferase biochemical assay (AlphaScreen), KAT6A; settings: Table 2 (MOZ-KAT6A); 10 μM Acetyl coenzyme A, histone H3.1, 5 nM enzyme
# T3 construct: encoding amino acid residues 507 to 778 (Uniprot Q92794-1) of human KAT6A; made in house; host or cells: E. coli BL21 DE3
# T3 sequence (Q92794 507-778 A567V limits assumed): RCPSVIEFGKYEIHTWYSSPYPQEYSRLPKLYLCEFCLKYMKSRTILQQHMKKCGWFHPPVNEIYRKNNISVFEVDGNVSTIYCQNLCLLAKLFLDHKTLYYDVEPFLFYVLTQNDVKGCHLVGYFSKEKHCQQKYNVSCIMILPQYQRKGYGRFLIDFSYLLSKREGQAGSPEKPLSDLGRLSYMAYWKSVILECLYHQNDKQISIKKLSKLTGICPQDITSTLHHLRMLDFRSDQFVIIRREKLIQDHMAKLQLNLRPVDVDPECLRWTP
# [4] = biological target: T4, MOF-KAT8 (Homo sapiens, UniProt Q9H7Z6); test: Acetyltransferase biochemical assay (AlphaScreen), KAT8; settings: Table 4 (MOF-KAT8); 0.4 μM Acetyl coenzyme A, histone H4, 20 nM enzyme
# T4 sequence (Q9H7Z6 177-447): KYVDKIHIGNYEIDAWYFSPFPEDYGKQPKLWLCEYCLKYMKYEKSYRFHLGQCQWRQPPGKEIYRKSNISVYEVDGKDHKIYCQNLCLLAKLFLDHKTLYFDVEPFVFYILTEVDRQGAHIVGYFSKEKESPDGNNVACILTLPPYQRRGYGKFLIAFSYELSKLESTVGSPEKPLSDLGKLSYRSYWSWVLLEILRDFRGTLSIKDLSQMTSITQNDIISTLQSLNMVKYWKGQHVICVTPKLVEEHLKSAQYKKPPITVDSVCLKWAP
# [5] = tested on: histone H3K14 acetylation (HBO1 mediated) in U2OS cells; test: Histone H3 Lysine 14 Acetylation Biomarker Assay (96 well, U2OS); type: cell-based; settings: Table 6, H3K14ac, 24 hours incubation, serum free medium
# Experimental: Compounds may be tested for their ability to inhibit acetylation of the histone H3K14 marker (which is HBO1 mediated) in the following assay:
# (§1) The cell line U2OS was seeded at a density of 12,000 cells per well in 96 well optical quality tissue culture plates in RPMI medium and 10% foetal bovine serum, and allowed to adhere for 24 hours under standard culture conditions (37 degree Celsius, 5% CO2). At the end of this period the cells were washed with serum free medium. Compound dilutions prepared in DMSO were added to the serum free medium, with negative control wells reserved for treatment with DMSO only and positive controls receiving a potent inhibitor compound (e.g. Example 36 in WO2016/198507) at 10 μM concentration. After incubation for 24 hours, the cells were fixed with 3.7% formaldehyde in PBS for 20 minutes at room temperature, washed with phosphate buffer saline containing 0.1% Tween 20 and blocked with Odyssey blocking buffer (LI-COR, Lincoln, Nebr.) containing 0.1% TritonX100. Anti-H3K14ac specific antibody (Cell Signalling Technologies) in Odyssey blocking buffer containing 0.1% Tween 20 was added and incubated for 14 hours at 4 degree Celsius. After washing, a secondary antibody labelled with Alexa647 dye (LifeTechnologies) and Hoechst 33342 (1 μg/mL, SigmaAldrich) were added for 1 hour incubation. Plates were washed and read on a PerkinElmer Phenix high content imaging platform. Using a Columbus image analysis pipeline, individual nuclei were located by Hoechst 33342 stain and the acetylation level was calculated from the Alexa647-related intensity in the same area. The resulting mean intensity per cell was directly converted to percent inhibition relative to controls on the same plate and the data fitted against a four-parameter logistic model to determine the 50% inhibitory concentration (IC50).
# [6] = tested on: histone H3K23 acetylation (KATE mediated) in U2OS cells; test: Histone H3 Lysine 23 Acetylation Biomarker Assay (U2OS); type: cell-based; settings: Homo sapiens, 96 well, 24 hours incubation
# Method in brief: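 U2OS cells were treated with compound for 24 h, then fixed and immunostained for H3K23ac with Hoechst nuclear counterstain. Per-nucleus Alexa647 intensity was quantified by high-content imaging and converted to % inhibition against DMSO and 10 μM reference-inhibitor controls. IC50 was derived from a four-parameter logistic fit.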
# [7] = biological target: T4, MOF-KAT8; test: Revised Acetyltransferase Biochemical Assay, KAT8
# [8] = biological target: T2, HBO-KAT7; test: Revised Acetyltransferase Biochemical Assay, KAT7; settings: Table 9 (HBO-KAT7), 1 μM Acetyl coenzyme A
# [9] = biological target: T1, TIP60-KAT5; test: Revised Acetyltransferase Biochemical Assay, KAT5; settings: 10 nM KAT5, 1 μM AcCoA, 100 nM histone H4, 90 min
# [10] = biological target: T3, MOZ-KAT6A; test: Revised Acetyltransferase Biochemical Assay, KAT6A; settings: Table 8 (MOZ-KAT6A), 1 μM Acetyl coenzyme A
# [11] = biological target: T5, QKF-KAT6B (Homo sapiens, UniProt Q8WYB5); test: Revised Acetyltransferase Biochemical Assay, KAT6B; settings: 8 nM KAT6B, 1 μM AcCoA, 100 nM histone H3.1, 90 min
# T5 construct: purchased SignalChem K315-381BG
# T5 sequence (Q8WYB5 whole entry): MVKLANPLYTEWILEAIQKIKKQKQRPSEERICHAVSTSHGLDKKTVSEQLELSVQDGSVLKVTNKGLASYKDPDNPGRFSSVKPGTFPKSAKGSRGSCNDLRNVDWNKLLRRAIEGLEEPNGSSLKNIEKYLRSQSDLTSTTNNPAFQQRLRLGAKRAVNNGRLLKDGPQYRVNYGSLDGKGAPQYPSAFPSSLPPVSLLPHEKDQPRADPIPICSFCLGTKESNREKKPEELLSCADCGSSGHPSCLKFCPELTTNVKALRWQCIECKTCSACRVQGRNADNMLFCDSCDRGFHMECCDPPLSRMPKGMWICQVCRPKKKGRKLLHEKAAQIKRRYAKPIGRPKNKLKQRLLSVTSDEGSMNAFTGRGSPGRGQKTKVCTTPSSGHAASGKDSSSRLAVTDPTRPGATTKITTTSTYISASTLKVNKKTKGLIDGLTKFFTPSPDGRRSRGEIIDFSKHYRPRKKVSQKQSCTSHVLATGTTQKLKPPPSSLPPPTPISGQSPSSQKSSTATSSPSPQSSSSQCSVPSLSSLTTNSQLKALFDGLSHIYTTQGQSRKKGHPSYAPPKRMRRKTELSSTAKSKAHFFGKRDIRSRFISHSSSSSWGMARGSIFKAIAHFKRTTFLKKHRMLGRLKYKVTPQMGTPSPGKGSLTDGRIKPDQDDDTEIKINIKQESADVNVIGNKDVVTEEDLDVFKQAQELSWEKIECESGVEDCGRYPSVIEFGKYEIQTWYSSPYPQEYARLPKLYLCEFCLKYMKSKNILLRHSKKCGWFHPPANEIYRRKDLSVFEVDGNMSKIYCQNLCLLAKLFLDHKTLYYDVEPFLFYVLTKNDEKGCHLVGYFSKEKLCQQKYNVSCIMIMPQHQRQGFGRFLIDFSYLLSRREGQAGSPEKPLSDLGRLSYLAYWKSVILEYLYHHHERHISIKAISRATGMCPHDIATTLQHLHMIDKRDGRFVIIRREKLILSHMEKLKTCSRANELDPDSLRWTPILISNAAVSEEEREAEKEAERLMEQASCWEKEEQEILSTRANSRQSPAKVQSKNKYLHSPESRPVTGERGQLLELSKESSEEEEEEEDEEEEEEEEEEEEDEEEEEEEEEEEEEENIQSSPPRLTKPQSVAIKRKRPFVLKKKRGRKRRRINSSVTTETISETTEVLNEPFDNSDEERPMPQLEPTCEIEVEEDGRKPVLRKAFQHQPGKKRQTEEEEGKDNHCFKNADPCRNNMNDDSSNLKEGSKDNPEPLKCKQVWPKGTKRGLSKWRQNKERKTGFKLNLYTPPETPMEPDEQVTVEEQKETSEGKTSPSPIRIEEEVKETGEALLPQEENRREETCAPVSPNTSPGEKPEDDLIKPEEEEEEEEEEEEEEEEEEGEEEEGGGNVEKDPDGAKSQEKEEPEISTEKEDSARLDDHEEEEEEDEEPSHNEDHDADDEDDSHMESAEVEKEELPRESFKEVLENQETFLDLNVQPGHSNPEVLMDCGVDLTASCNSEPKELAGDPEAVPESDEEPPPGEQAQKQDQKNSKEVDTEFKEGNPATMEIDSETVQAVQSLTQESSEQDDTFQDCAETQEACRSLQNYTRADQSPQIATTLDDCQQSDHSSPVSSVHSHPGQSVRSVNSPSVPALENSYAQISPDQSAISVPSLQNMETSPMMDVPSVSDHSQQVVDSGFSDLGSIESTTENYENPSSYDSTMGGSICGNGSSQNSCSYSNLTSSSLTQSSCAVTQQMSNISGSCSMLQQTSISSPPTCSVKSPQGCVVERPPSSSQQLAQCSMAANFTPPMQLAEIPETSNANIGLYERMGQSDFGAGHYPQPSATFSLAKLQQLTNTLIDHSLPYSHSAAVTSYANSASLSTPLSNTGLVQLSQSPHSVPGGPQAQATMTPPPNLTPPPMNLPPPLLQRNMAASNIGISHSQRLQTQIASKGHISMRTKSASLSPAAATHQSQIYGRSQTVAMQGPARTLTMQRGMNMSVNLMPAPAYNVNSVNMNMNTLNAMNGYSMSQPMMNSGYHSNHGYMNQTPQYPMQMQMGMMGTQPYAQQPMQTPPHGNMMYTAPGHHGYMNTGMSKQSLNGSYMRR
# Text: KAT6B was obtained from SignalChem, catalog ID: K315-381BG
# [12] = tested on: histone H2A.Z Lysine 7 acetylation (TIP60 mediated) in U2OS cells; test: H2A.Z Lysine 7 Acetylation Biomarker Assay (96 well, U2OS); type: cell-based; settings: Homo sapiens, Table 7, H2A.Z K7ac, 24 hours incubation, serum free medium
# Experimental: To discover a global TIP60/KAT5 cellular biomarker useful for monitoring PD responses of TIP60 inhibition in vitro and in vivo, various histone modifications were assessed for TIP60 dependence through genetic (TIP60 siRNA and CRISPR/Cas9) or TIP60 pharmacological inhibition. This analysis clearly identified acetylation of the histone variant H2A.Z at Lysine 7 (H2A.ZK7ac) as a global histone mark which is TIP60-dependent in both human and mouse cells. To a lesser extent, TIP60 also acetylated lysine 4 and 11 of H2A.Z.
# Compounds may be tested for their ability to inhibit the histone H2A.Z Lysine 7 acetylation biomarker (which is TIP60 mediated) in the following assay:
# as §1, with “of 9,000” for “of 12,000”, “Example 146)” for “Example 36 in WO2016/198507)”, “at 20” for “at 10”, “TritonX100. Anti-H2A.Z K7ac” for “TritonX100. Anti-H3K14ac”, “antibody (Abcam)” for “antibody (Cell Signalling Technologies)”, “33342 (10 μM,” for “33342 (1 μg/mL,”
IC50 [1],IC50 [2],IC50 [3],IC50 [4],IC50 [5],IC50 [6],IC50 [7],IC50 [8],IC50 [9],IC50 [10],IC50 [11],"IC50 ([5]; Homo sapiens, 24 h)",IC50 [12],SMILES
27.6 µM,633 nM,8030 nM,> 125 µM,7.89 µM,–,–,–,–,–,–,–,–,"O=C(NCC(c1ccccc1)c1ncco1)C1=Nc2ccccc2S(=O)(=O)N1 (single isomer, unassigned) [Example 136]"
4.27 µM,6570 nM,21.1 nM,56.7 µM,17.5 µM,–,–,–,–,–,–,–,–,"[C-]#[N+]c1ccc2c(c1)S(=O)(=O)NC(C(=O)NCC(c1ccccc1)c1ncco1)=N2 (single isomer, unassigned) [Example 142]"
13.8 µM,1750 nM,346 nM,30 µM,14.6 µM,–,–,–,–,–,–,–,–,"[C-]#[N+]c1ccc2c(c1)S(=O)(=O)NC(C(=O)NCC(c1ccccc1)c1ncco1)=N2 (single isomer, unassigned) [Example 143]"
4.4 µM,1200 nM,–,–,–,5.87 µM,10.5 µM,134 nM,2010 nM,11 nM,210 nM,9.68 µM,–,"O=C(NCC(c1ccccc1)c1ncco1)C1=Nc2ccc(O)cc2S(=O)(=O)N1 (stereo not shown) [Example 8, 7-Hydroxy-N-(2-(oxazol-2-yl)-2-phenylethyl)-2H-benzo[e][1,2,4]thiadiazine-3-carboxamide 1,1-dioxide]"
2.62 µM,5870 nM,–,–,–,–,–,–,–,–,–,–,26.8 µM,"COC(=O)c1ccccc1CCNC(=O)C1=Nc2ccc(I)cc2S(=O)(=O)N1 [Example 12, Methyl 2-(2-(7-iodo-1,1-dioxido-2H-benzo[e][1,2,4]thiadiazine-3-carboxamido)ethyl)benzoate]"
0.727 µM,981 nM,229 nM,–,–,–,36.4 µM,128 nM,111 nM,10 nM,–,–,5.78 µM,"O=C(NCCc1ccccc1-c1ncco1)C1=Nc2ccc(I)cc2S(=O)(=O)N1 [Example 13, 7-Iodo-N-(2-(oxazol-2-yl)phenethyl)-2H-benzo[e][1,2,4]thiadiazine-3-carboxamide 1,1-dioxide]"
19.6 µM,538 nM,661 nM,–,–,0.263 µM,–,3380 nM,5470 nM,74 nM,724 nM,9.98 µM,–,"O=C(NCC(c1ccccc1)c1ncco1)C1=Nc2ccc(F)cc2S(=O)(=O)N1 (stereo not shown) [Example 36, 7-fluoro-N-(2-(oxazol-2-yl)-2-phenylethyl)-2H-benzo[e][1,2,4]thiadiazine-3-carboxamide 1,1-dioxide]"
1.96 µM,154 nM,532 nM,–,–,–,–,–,–,–,–,1.5 µM,–,"C#Cc1ccc2c(c1)S(=O)(=O)NC(C(=O)NCC(c1ccccc1)c1ccccc1)=N2 [Example 38, N-(2,2-diphenylethyl)-7-ethynyl-2H-benzo[e][1,2,4]thiadiazine-3-carboxamide 1,1-dioxide]"
5.88 µM,192 nM,–,–,–,–,–,299 nM,3060 nM,32 nM,–,2.49 µM,–,"O=C(NCC(c1ccc(F)cc1)c1ccccn1)C1=Nc2ccc(Br)cc2S(=O)(=O)N1 (stereo not shown) [Example 39, 7-bromo-N-(2-(4-fluorophenyl)-2-(pyridin-2-yl)ethyl)-2H-benzo[e][1,2,4]thiadiazine-3-carboxamide 1,1-dioxide]"
0.269 µM,219 nM,80.9 nM,–,–,–,1.3 µM,63 nM,61 nM,10 nM,–,0.65 µM,–,Cc1noc(C(CNC(=O)C2=Nc3ccc(I)cc3S(=O)(=O)N2)c2ccccc2)n1 (stereo not shown) [Example 56]
0.778 µM,83.6 nM,256 nM,33.3 µM,–,–,77 µM,62 nM,426 nM,17 nM,–,0.765 µM,–,O=C(NCC(c1ccccc1)n1cccn1)C1=Nc2ccc(Br)cc2S(=O)(=O)N1 (stereo not shown) [Example 84]
0.367 µM,675 nM,783 nM,21.8 µM,–,–,–,–,–,–,–,1.39 µM,–,O=C(NCCc1ccccc1OC(F)(F)F)C1=Nc2ccc(I)cc2S(=O)(=O)N1 [Example 92]
9.2 µM,9590 nM,2200 nM,–,–,> 10 µM,> 125 µM,1790 nM,2000 nM,98 nM,1780 nM,30 µM,–,O=C(NCCc1ccccc1)C1=Nc2ccc(I)cc2S(=O)(=O)N1 [Example 93]
0.423 µM,229 nM,476 nM,31.2 µM,–,–,–,–,–,–,–,1.06 µM,–,O=C(NCCc1ccccc1OC(F)F)C1=Nc2ccc(Br)cc2S(=O)(=O)N1 [Example 115]
> 125 µM,> 125000 nM,–,–,–,–,–,–,–,–,–,–,10 µM,O=C(NCC(O)c1cccc(OCc2ccccc2)c1)C1=Nc2ccc(I)cc2S(=O)(=O)N1 (stereo not shown) [Example 122]
